Results published in patent US10155754B2, “Substituted 2-imino-1,3-thiazolidin-4-ones as N-arachidonoylethanolamine cellular uptake inhibitors” (UNIVERSITAT BERN, priority 2014, dated 2018).

Assays:
[1] = system: AEA cellular uptake (U937 cells); assay: [3H]-AEA cellular uptake inhibition in U937 cells; assay type: cell-based; conditions: Homo sapiens, U-937, U937 cells, final 100 nM AEA with 0.5 nM [3H]-AEA, 15 min at 37° C.; read-out: AEA uptake IC50
Outline: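 U937 cells (0.5×10^6 per sample) pre-incubated with compound (100 pM–100 μM, triplicates) for 15 min at 37 °C, then given 100 nM AEA including 0.5 nM [3H]-AEA for 15 min. Filtration, washing and scintillation counting of cell-associated radioactivity; IC50 by four-parameter nonlinear regression.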

FAAH = molecular target: T1, FAAH (Homo sapiens, UniProt O00519); assay: FAAH activity: hydrolysis of [3H]-AEA in U937 cell homogenates; assay type: biochemical; conditions: [3H]-AEA hydrolysis, final 100 nM AEA, read-out: FAAH inhibition IC50
T1 construct: endogenous in cells; host or cells: U937 cell homogenate
T1 sequence (O00519 1-579): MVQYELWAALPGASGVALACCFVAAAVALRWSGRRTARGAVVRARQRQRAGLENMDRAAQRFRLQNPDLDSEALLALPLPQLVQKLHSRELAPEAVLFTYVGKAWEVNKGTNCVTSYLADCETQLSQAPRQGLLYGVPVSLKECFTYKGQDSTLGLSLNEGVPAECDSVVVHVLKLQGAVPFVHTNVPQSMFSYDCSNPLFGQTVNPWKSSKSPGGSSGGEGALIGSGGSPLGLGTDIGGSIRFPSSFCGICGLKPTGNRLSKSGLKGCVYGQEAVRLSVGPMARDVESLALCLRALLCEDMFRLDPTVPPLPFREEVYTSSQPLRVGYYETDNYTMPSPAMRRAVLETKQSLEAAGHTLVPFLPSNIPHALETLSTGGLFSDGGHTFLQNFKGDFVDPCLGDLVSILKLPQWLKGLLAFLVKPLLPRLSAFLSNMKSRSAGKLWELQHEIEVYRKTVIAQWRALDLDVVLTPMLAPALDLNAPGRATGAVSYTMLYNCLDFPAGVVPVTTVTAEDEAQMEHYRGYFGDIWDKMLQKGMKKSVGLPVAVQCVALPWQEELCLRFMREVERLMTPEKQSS
Description: Hydrolysis of [^3H]-AEA by FAAH was determined as previously described in cell homogenates of U937 cells (0.18 mg protein) (Omeir et al., 1999, Biochem Biophys Res Commun, 264, 316-20; Mor et al., 2004, J Med Chem, 47, 4998-5008). Protein amounts of cell homogenates corresponded to 0.5×10^6 cells (U937), to assure best possible comparability of IC50 values as used for the AEA cellular uptake assays. URB597 was used as positive control. Protein quantification was performed using a BCA assay (Thermo Scientific). Enzyme activity was assessed by addition of vehicle or compounds in 10 μL DMSO to 490 μL homogenate in 10 mM Tris HCl, 1 mM EDTA, 0.1% (w/v) BSA fatty acid free, pH=8 and incubation for 15 min at 37° C. After, a mixture of AEA plus [ethanolamine-1-^3H]-AEA (0.5 nM) at final 100 nM was added to the homogenates and incubated for 15 min at 37° C. The reaction was stopped by addition of 1 mL ice-cold CHCl3:MeOH (1:1) followed by vigorous vortexing. Phase separation was achieved by centrifugation at 10'000×g at 4° C. for 10 min. Radioactivity of the separated aqueous phase (upper phase) containing [^3H-ethanolamine] or [^3H-glycerol] was measured by liquid scintillation counting on a Tri-Carb 2100 TR liquid scintillation analyzer after addition of 3.5 mL Ultima Gold scintillation cocktail (PerkinElmer Life Sciences). Results are expressed as hydrolysis of tritium substrate in percent of vehicle treated control. IC50 values were calculated by GraphPad®. Data are reported as means of n=3 independent experiments performed in triplicates.

Row | SMILES | IC50 [1] [nM] | IC50 (FAAH) [nM]
1 | Cc1ccc(/N=C2\S/C(=C\c3ccc4[nH]ccc4c3)C(=O)N2c2ccc(C)cc2)cc1 [03_A_A, (2Z,5Z)-5-((1H-indol-5-yl)methylene)-2-(p-tolylimino)-3-p-tolylthiazolidin-4-one] | 315 | > 100000
2 | CC(C)CN1C(=O)/C(=C/c2ccc3[nH]ccc3c2)S/C1=N\c1ccc(F)cc1 [03_B_X, (2Z,5Z)-5-((1H-indol-5-yl)methylene)-2-(4-fluorophenylimino)-3-isobutylthiazolidin-4-one] | 479 | > 100000
3 | O=C1/C(=C/c2ccc3[nH]ccc3c2)S/C(=N\Cc2ccc(F)cc2)N1c1ccccc1 [03_P_N, (2Z,5Z)-5-((1H-indol-5-yl)methylene)-2-(4-fluorobenzylimino)-3-phenylthiazolidin-4-one] | 403 | < 10000
4 | O=C1/C(=C/c2ccc3[nH]ccc3c2)S/C(=N\Cc2ccccc2Cl)N1c1ccccc1 [03_T_N, (2Z,5Z)-5-((1H-indol-5-yl)methylene)-2-(2-chlorobenzylimino)-3-phenylthiazolidin-4-one] | 262 | > 100000
5 | Cc1ccc(/N=C2\S/C(=C\c3ccc4[nH]cnc4c3)C(=O)N2c2ccc(C)cc2)cc1 [04_A_A, (2Z,5Z)-5-((1H-benzo[d]imidazol-5-yl)methylene)-2-(p-tolylimino)-3-p-tolylthiazolidin-4-one] | 390 | > 100000
6 | Cc1ccc(/N=C2\S/C(=C\c3ccc4[nH]cnc4c3)C(=O)N2c2ccccc2)cc1 [04_A_N, (2Z,5Z)-5-((1H-benzo[d]imidazol-5-yl)methylene)-2-(p-tolylimino)-3-phenylthiazolidin-4-one] | 107 | > 100000
7 | Cc1ccc(/N=C2\S/C(=C\c3ccc4[nH]cnc4c3)C(=O)N2CC(C)C)cc1 [04_A_X, (2Z,5Z)-5-((1H-benzo[d]imidazol-5-yl)methylene)-2-(p-tolylimino)-3-isobutylthiazolidin-4-one] | 155 | 14500
8 | O=C1/C(=C/c2ccc3[nH]cnc3c2)S/C(=N\c2ccc(F)cc2)N1C1CCCCC1 [04_B_I, (2Z,5Z)-5-((1H-benzo[d]imidazol-5-yl)methylene)-2-(4-fluorophenylimino)-3-cyclohexylthiazolidin-4-one] | 132 | 22900
9 | COc1ccc(N2C(=O)/C(=C/c3ccc4[nH]cnc4c3)S/C2=N\Cc2ccccc2)cc1 [04_C_F, (2Z,5Z)-5-((1H-benzo[d]imidazol-5-yl)methylene)-2-(benzylimino)-3-(4-methoxyphenyl)thiazolidin-4-one] | 484 | > 10000
10 | COc1ccc(/N=C2\S/C(=C\c3ccc4[nH]cnc4c3)C(=O)N2c2ccccc2)cc1 [04_F_N, (2Z,5Z)-5-((1H-benzo[d]imidazol-5-yl)methylene)-2-(4-methoxyphenylimino)-3-phenylthiazolidin-4-one] | 164 | > 100000
11 | COCc1cccc(/C=C2\S/C(=N\Cc3ccc(OC)cc3)N(c3ccccc3)C2=O)c1 [15_Q_N, (2Z,5Z)-5-(3-(methoxymethyl)benzylidene)-2-(4-methoxybenzylimino)-3-phenylthiazolidin-4-one] | 368 | < 10000
12 | Cc1ccc(/N=C2\S/C(=C\c3ccc(CO)cc3)C(=O)N2c2ccc(C)cc2)cc1 [22_A_A, (2Z,5Z)-5-(4-(hydroxymethyl)benzylidene)-2-(p-tolylimino)-3-p-tolylthiazolidin-4-one] | 341 | > 100000
13 | Cc1ccc(/N=C2\S/C(=C\c3ccc(CO)cc3)C(=O)N2c2ccccc2)cc1 [22_A_N, (2Z,5Z)-5-(4-(hydroxymethyl)benzylidene)-2-(p-tolylimino)-3-phenylthiazolidin-4-one] | 111 | 19500
14 | Cc1ccc(/N=C2\S/C(=C\c3ccc(CO)cc3)C(=O)N2CC(C)C)cc1 [22_A_X, (2Z,5Z)-5-(4-(hydroxymethyl)benzylidene)-2-(p-tolylimino)-3-isobutylthiazolidin-4-] | 150 | > 100000
15 | Cc1ccc(N2C(=O)/C(=C/c3ccc(CO)cc3)S/C2=N\c2ccc(F)cc2)cc1 [22_B_A, (2Z,5Z)-5-(4-(hydroxymethyl)benzylidene)-2-(4-fluorophenylimino)-3-p-tolylthiazolidin-4-one] | 386 | > 100000
16 | O=C1/C(=C/c2ccc3c(c2)OCCO3)S/C(=N\c2ccc(F)cc2)N1C1CCCCC1 [22_B_I] | – | > 100000
17 | CC(C)CN1C(=O)/C(=C/c2ccc(CO)cc2)S/C1=N\c1ccc(F)cc1 [22_B_X, (2Z,5Z)-5-(4-(hydroxymethyl)benzylidene)-2-(4-fluorophenylimino)-3-isobutylthiazolidin-4-one] | 127 | 19100
18 | COc1ccc(/N=C2\S/C(=C\c3ccc(CO)cc3)C(=O)N2c2ccccc2)cc1 [22_F_N, (2Z,5Z)-5-(4-(hydroxymethyl)benzylidene)-2-(4-methoxyphenylimino)-3-phenylthiazolidin-4-one] | 135 | > 100000
19 | O=C1/C(=C/c2ccc(CO)cc2)S/C(=N\CCCc2ccccc2)N1c1ccccc1 [22_K_N, (2Z,5Z)-2-(3-phenylpropylimino)-5-(4-(hydroxymethyl)benzylidene)-3-phenylthiazolidin-4-one] | 97 | 6610
20 | O=C1/C(=C/c2ccccc2)S/C(=N\Cc2ccccc2)N1c1ccccc1 [23_C_N, (2Z,5Z)-5-benzylidene-2-(benzylimino)-3-phenylthiazolidin-4-one] | 180 | > 10000
21 | Cc1ccc(/N=C2\S/C(=C\c3ccc4c(c3)OCCO4)C(=O)N2c2ccc(C)cc2)cc1 [24_A_A, (2Z,5Z)-2-(p-tolylimino)-5-((2,3-dihydrobenzo[b][1,4]dioxin-6-yl)methylene)-3-p-tolylthiazolidin-4-one] | 286 | > 100000
22 | Cc1ccc(/N=C2\S/C(=C\c3ccc4c(c3)OCCO4)C(=O)N2C2CCCCC2)cc1 [24_A_I, (2Z,5Z)-3-cyclohexyl-5-(2,3-dihydro-1,4-benzodioxin-6-ylmethylene)-2-(p-tolylimino)thiazolidin-4-one] | 301 | > 100000
23 | O=C1/C(=C/c2ccc3c(c2)OCCO3)S/C(=N\c2ccc(F)cc2)N1c1ccc(F)cc1 [24_B_B, (2Z,5Z)-2-(4-fluorophenylimino)-3-(4-fluorophenyl)-5-((2,3-dihydrobenzo[b][1,4]dioxin-6-yl)methylene)thiazolidin-4-one] | 170 | > 100000
24 | O=C1/C(=C/c2ccc3c(c2)OCCO3)S/C(=N\c2ccc(F)cc2)N1C1CCCCC1 [24_B_I, (2Z,5Z)-2-(4-fluorophenylimino)-3-cyclohexyl-5-((2,3-dihydrobenzo[b][1,4]dioxin-6-yl)methylene)thiazolidin-4-one] | 141 | > 100000
25 | O=C1/C(=C/c2ccc3c(c2)OCCO3)S/C(=N\Cc2ccccc2)N1c1ccc(F)cc1 [24_C_B, (2Z,5Z)-2-(benzylimino)-3-(4-fluorophenyl)-5-((2,3-dihydrobenzo[b][1,4]dioxin-7-yl)methylene)thiazolidin-4-one] | – | > 100000
26 | O=C1/C(=C/c2ccc3c(c2)OCCO3)S/C(=N\Cc2ccccc2)N1Cc1ccccc1 [24_C_C, (2Z,5Z)-3-benzyl-2-(benzylimino)-5-((2,3-dihydrobenzo[b][1,4]dioxin-7-yl)methylene)thiazolidin-4-one] | – | > 100000
27 | COc1ccc(N2C(=O)/C(=C/c3ccc4c(c3)OCCO4)S/C2=N\Cc2ccccc2)cc1 [24_C_F, (2Z,5Z)-2-(benzylimino)-5-((2,3-dihydrobenzo[b][1,4]dioxin-7-yl)methylene)-3-(4-methoxyphenyl)thiazolidin-4-one] | – | > 100000
